Activity calls are given as the source filed them. The calls are words filed in the database; no cut-off is given here.
Columns and labels:
Rattus norvegicus [1] = test: Antipsychotic activity in Sprague-Dawley rat conditioned avoidance response model assessed as avoidance of shock at 2.5 mg/kg, po measured after 2 hrs relative to vehicle-treated control; type: functional
Rattus norvegicus [2] = test: Antipsychotic activity in Sprague-Dawley rat conditioned avoidance response model assessed as avoidance of shock at 10 mg/kg, po measured after 2 hrs relative to vehicle-treated control; type: functional
[3] = biological target: cGMP-specific 3',5'-cyclic phosphodiesterase (Homo sapiens) (UniProt O76074); test: Inhibition of human recombinant PDE5A using […] as substrate at 10 uM after 30 mins by scintillation proximity assay
[4] = biological target: Dual 3',5'-cyclic-AMP and -GMP phosphodiesterase 11A (Homo sapiens) (UniProt Q9HCR9); test: Inhibition of human recombinant PDE11A using [3H]-cAMP as substrate at 1 uM after 30 mins by two-step radiometric assay
[5] = Half life in Sprague-Dawley rat at 10 mg/kg, po; type: ADME, organism-based; design: dose 10 mg/kg, route oral; conditions: in vivo
[6] = Metabolic stability in human liver microsomes incubated for 10 mins prior to NADPH addition measured after 60 mins by LC/MS/MS analysis; type: ADME; conditions: read-out: Stability
[7] = biological target: 3',5'-cyclic-AMP phosphodiesterase 4D (Homo sapiens) (UniProt Q08499); test: Inhibition of human recombinant PDE4D using [3H]-cAMP as substrate at 1 uM after 30 mins by two-step radiometric assay
[8] = Metabolic stability in Beagle dog liver microsomes incubated for 10 mins prior to NADPH addition measured after 60 mins by LC/MS/MS analysis; type: ADME, Canis lupus familiaris; conditions: read-out: Stability
[9] = biological target: cGMP-inhibited 3',5'-cyclic phosphodiesterase 3A (Homo sapiens) (UniProt Q14432); test: Inhibition of human recombinant PDE3A using cAMP as substrate at 10 uM after 30 mins by HTRF method
Rattus norvegicus [10] = test: Antipsychotic activity in Sprague-Dawley rat prepulse inhibition deficit model assessed as reversal of MK-801-induced effect at 3 mg/kg, po administered 110 mins prior to MK-801 challenge relative to vehicle-treated control; type: functional; design: scale not given: the % may be the effect or the level left
Rattus norvegicus [11] = test: Antipsychotic activity in Sprague-Dawley rat psychosis model assessed as reversal of MK-801-induced stereotypy at 10 mg/kg, po administered 2 hrs prior to MK-801 challenge measured every 5 mins for 1 hr starting 15 mins post MK-801 injection relative to vehicle-treated control; type: functional
[12] = biological target: cGMP-dependent 3',5'-cyclic phosphodiesterase (Homo sapiens) (UniProt O00408); test: Inhibition of human recombinant PDE2A using cAMP as substrate at 10 uM after 30 mins by HTRF method
Rattus norvegicus [13] = test: Antipsychotic activity in Sprague-Dawley rat psychosis model assessed as reversal of MK-801-induced ataxia at 3 mg/kg, po administered 2 hrs prior to MK-801 challenge measured every 5 mins for 1 hr starting 15 mins post MK-801 injection relative to vehicle-treated control; type: functional
[14] = Tmax in Swiss albino mouse at 10 mg/kg, po; type: ADME, organism-based; design: dose 10 mg/kg, route oral; conditions: in vivo
Rattus norvegicus [15] = test: Antipsychotic activity in Sprague-Dawley rat conditioned avoidance response model assessed as response failure at 10 mg/kg, po measured after 2 hrs relative to vehicle-treated control; type: functional, organism-based; design: dose 10 mg/kg
[16] = Tmax in Sprague-Dawley rat at 10 mg/kg, po; type: ADME, organism-based; design: dose 10 mg/kg, route oral; conditions: in vivo
Rattus norvegicus [17] = test: Antipsychotic activity in Sprague-Dawley rat psychosis model assessed as reversal of MK-801-induced locomotion at 10 mg/kg, po administered 2 hrs prior to MK-801 challenge measured every 5 mins for 1 hr starting 15 mins post MK-801 injection relative to vehicle-treated control; type: functional
[18] = AUC (0 to t) in Sprague-Dawley rat at 10 mg/kg, po; type: ADME, organism-based; design: dose 10 mg/kg, route oral; conditions: plasma
[19] = Metabolic stability in CD1 mouse liver microsomes incubated for 10 mins prior to NADPH addition measured after 60 mins by LC/MS/MS analysis; type: ADME; conditions: read-out: Stability
Rattus norvegicus [20] = test: Antipsychotic activity in Sprague-Dawley rat psychosis model assessed as reversal of MK-801-induced ataxia at 10 mg/kg, po administered 2 hrs prior to MK-801 challenge measured every 5 mins for 1 hr starting 15 mins post MK-801 injection relative to vehicle-treated control; type: functional
Rattus norvegicus [21] = test: Antipsychotic activity in Sprague-Dawley rat conditioned avoidance response model assessed as avoidance of shock at 1 mg/kg, po measured after 2 hrs relative to vehicle-treated control; type: functional
[22] = Apparent permeability of the compound by PAMPA; type: physicochemical
[23] = biological target: High affinity 3',5'-cyclic-AMP phosphodiesterase 7A (Homo sapiens) (UniProt Q13946); test: Inhibition of human recombinant PDE7A using [3H]-cAMP as substrate at 10 uM after 30 mins by two-step radiometric assay
Rattus norvegicus [24] = test: Antipsychotic activity in po dosed Sprague-Dawley rat conditioned avoidance response model assessed as avoidance of shock measured after 2 hrs relative to vehicle-treated control; type: functional
Brain = test: Free drug level in Sprague-Dawley rat brain at 10 mg/kg, po after 1 hr by LC/MS/MS analysis; type: ADME, organism-based; design: dose 10 mg/kg, route oral; conditions: in vivo
[25] = biological target: Dual 3',5'-cyclic-AMP and -GMP phosphodiesterase 11A (Homo sapiens) (UniProt Q9HCR9); test: Inhibition of human recombinant PDE11A using [3H]-cAMP as substrate at 10 uM after 30 mins by two-step radiometric assay
[26] = biological target: cAMP and cAMP-inhibited cGMP 3',5'-cyclic phosphodiesterase 10A (Homo sapiens, UniProt Q9Y233); test: Inhibition of human recombinant GST-tagged PDE10A using [3H]-cAMP as substrate after 30 mins by scintillation proximity assay
[27] = biological target: cGMP-inhibited 3',5'-cyclic phosphodiesterase 3A (Homo sapiens) (UniProt Q14432); test: Inhibition of human recombinant PDE3A using cAMP as substrate at 1 uM after 30 mins by HTRF method
[28] = AUC (0 to t) in Swiss albino mouse at 10 mg/kg, po; type: ADME, organism-based; design: dose 10 mg/kg, route oral; conditions: plasma
Rattus norvegicus [29] = test: Antipsychotic activity in Sprague-Dawley rat prepulse inhibition deficit model assessed as reversal of MK-801-induced effect at 1 mg/kg, po administered 110 mins prior to MK-801 challenge relative to vehicle-treated control; type: functional; design: scale not given: the % may be the effect or the level left
[30] = biological target: 3',5'-cyclic-AMP phosphodiesterase 4D (Homo sapiens) (UniProt Q08499); test: Inhibition of human recombinant PDE4D using [3H]-cAMP as substrate at 10 uM after 30 mins by two-step radiometric assay

Dual 3',5'-cyclic-AMP and -GMP phosphodiesterase 11A (Homo sapiens), sequence (Q9HCR9 whole entry, looked up): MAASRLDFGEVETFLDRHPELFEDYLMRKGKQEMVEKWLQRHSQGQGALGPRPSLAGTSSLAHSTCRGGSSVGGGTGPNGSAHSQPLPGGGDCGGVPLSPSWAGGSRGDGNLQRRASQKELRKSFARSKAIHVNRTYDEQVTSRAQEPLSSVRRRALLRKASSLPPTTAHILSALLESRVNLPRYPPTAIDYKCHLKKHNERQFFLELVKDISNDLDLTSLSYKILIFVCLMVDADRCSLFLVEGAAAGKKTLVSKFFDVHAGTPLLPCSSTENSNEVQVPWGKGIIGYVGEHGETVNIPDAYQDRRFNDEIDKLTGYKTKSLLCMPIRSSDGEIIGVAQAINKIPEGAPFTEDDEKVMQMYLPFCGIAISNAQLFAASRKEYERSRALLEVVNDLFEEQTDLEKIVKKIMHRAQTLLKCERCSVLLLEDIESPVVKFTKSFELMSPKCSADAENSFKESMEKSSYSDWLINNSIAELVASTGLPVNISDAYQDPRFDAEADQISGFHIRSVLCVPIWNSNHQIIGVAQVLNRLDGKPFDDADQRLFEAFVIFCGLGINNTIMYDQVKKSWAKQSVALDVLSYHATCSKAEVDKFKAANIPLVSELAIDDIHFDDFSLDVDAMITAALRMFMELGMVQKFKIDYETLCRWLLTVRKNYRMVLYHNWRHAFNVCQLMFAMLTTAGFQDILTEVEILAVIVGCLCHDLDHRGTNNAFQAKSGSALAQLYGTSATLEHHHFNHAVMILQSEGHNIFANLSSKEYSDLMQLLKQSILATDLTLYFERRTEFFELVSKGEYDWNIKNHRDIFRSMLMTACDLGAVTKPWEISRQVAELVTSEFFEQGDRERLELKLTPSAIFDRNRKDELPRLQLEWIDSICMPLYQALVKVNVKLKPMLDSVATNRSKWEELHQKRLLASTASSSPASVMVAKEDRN
3',5'-cyclic-AMP phosphodiesterase 4D (Homo sapiens), sequence (Q08499 whole entry): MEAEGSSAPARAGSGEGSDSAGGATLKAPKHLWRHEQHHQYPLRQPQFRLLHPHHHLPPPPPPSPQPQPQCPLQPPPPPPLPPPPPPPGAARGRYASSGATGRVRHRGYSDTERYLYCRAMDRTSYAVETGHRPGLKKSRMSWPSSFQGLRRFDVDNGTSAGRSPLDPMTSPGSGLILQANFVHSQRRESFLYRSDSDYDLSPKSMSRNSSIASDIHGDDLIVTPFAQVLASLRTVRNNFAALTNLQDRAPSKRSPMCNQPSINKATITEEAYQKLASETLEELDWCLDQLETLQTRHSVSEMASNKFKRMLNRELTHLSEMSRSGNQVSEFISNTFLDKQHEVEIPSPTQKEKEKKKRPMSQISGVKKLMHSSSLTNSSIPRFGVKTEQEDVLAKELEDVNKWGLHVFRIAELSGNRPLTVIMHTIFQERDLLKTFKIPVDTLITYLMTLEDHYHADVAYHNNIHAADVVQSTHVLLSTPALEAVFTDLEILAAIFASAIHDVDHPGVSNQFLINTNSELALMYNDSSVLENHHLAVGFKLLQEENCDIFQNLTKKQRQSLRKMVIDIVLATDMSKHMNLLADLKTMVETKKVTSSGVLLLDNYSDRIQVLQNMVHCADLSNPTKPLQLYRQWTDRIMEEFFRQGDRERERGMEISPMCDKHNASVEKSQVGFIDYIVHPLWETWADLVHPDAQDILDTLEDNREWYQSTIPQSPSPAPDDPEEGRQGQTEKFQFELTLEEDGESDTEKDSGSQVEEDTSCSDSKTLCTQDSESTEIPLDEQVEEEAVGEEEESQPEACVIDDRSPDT
cGMP-inhibited 3',5'-cyclic phosphodiesterase 3A (Homo sapiens), sequence (Q14432 whole entry): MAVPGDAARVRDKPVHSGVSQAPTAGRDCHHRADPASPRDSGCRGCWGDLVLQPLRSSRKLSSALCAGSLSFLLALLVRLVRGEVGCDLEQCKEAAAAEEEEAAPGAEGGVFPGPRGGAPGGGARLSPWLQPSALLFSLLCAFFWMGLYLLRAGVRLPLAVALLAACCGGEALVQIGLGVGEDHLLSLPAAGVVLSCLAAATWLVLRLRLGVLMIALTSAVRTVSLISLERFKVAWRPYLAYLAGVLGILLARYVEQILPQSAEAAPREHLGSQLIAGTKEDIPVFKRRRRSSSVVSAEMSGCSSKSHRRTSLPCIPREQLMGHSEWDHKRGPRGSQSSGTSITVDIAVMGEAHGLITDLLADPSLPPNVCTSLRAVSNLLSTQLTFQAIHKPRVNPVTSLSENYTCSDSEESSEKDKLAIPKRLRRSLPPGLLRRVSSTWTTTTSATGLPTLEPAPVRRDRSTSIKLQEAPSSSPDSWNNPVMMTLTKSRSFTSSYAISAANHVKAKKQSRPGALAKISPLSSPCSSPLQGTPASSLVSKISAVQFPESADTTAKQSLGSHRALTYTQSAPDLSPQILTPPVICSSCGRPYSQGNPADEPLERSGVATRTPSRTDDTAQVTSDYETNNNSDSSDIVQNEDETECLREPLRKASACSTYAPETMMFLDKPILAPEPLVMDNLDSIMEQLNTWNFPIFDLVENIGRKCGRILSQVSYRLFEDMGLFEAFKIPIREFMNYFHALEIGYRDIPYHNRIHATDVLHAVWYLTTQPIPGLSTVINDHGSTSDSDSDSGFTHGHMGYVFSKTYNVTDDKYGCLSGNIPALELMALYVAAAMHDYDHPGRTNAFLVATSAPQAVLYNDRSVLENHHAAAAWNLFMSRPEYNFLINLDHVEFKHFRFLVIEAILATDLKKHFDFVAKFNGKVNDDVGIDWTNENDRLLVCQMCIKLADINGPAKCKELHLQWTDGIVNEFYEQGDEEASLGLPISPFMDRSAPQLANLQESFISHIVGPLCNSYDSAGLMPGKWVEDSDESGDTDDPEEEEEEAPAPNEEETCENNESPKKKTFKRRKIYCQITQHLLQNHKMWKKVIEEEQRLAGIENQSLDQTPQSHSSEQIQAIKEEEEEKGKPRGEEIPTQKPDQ
cAMP and cAMP-inhibited cGMP 3',5'-cyclic phosphodiesterase 10A, sequence (Q9Y233 whole entry): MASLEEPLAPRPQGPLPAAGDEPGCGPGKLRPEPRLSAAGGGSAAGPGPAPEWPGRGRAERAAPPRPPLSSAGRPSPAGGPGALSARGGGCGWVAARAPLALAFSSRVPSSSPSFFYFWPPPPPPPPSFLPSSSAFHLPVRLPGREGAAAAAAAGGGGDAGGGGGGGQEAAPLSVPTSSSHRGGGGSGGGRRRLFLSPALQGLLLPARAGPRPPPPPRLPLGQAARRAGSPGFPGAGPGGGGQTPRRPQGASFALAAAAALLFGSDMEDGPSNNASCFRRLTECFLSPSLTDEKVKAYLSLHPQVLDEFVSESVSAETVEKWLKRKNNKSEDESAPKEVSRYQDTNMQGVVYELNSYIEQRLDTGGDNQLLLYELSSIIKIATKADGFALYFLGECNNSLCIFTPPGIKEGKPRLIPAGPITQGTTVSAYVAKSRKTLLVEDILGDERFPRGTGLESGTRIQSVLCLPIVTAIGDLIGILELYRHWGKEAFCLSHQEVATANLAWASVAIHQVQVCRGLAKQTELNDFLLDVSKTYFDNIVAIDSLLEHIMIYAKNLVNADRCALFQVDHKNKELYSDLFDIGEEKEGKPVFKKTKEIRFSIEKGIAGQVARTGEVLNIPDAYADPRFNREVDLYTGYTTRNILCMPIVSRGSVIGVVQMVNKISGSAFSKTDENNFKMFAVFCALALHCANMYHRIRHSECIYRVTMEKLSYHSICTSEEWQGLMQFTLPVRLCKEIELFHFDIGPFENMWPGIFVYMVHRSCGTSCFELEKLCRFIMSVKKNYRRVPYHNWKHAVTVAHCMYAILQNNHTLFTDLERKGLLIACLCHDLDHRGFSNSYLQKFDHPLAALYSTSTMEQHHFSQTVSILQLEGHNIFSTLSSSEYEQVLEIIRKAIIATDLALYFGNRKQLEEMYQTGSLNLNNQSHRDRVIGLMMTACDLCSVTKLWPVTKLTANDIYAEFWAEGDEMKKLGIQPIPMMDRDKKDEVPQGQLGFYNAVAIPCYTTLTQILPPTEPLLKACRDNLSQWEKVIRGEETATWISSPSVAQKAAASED
cGMP-dependent 3',5'-cyclic phosphodiesterase (Homo sapiens), sequence (O00408 whole entry): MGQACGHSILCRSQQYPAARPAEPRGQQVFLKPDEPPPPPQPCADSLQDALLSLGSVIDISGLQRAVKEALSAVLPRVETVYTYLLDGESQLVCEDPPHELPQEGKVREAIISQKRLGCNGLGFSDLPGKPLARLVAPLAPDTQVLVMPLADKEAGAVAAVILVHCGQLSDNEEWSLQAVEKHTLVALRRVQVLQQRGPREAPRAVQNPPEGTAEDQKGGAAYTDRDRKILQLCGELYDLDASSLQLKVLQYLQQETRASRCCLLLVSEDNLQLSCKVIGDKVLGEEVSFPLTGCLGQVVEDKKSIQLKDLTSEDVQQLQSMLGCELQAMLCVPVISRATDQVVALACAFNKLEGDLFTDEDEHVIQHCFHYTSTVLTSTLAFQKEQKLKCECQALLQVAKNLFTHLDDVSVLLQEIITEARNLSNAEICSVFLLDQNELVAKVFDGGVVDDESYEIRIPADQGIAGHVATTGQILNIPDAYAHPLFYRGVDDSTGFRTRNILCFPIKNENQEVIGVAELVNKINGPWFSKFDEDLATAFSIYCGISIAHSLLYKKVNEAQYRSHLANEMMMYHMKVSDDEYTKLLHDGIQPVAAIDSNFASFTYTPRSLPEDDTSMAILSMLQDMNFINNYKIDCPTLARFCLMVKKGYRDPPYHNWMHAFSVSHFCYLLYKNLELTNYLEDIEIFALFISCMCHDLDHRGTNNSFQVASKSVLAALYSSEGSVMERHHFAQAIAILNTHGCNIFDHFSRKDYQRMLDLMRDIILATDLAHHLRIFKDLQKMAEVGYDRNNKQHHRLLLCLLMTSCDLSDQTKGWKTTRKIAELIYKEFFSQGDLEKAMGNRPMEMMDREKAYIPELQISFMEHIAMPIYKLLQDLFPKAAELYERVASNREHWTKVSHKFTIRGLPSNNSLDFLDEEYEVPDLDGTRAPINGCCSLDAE

In the case of Cn1cc(-c2ccc(Oc3nccnc3-c3ccncc3)cc2)c2ncccc21, the Activity (Rattus norvegicus [1]) is reported as 64%, the Activity (Rattus norvegicus [2]) is reported as 90% and the inhibition [3] is reported as 21.6%. For the same compound, the inhibition [4] was 4.9%, the half-life [5] was 4.4 h and the remaining at 1 h [6] was 77.4%. For the same compound, the inhibition [7] was 0%, the remaining at 1 h [8] was 65.8% and the inhibition [9] was 6.3%. It also gave an Activity (Rattus norvegicus [10]) of 64%, an Activity (Rattus norvegicus [11]) of 99% and an inhibition [12] of 42.4%. The Activity (Rattus norvegicus [13]) was 59%, the Tmax [14] was 0.5 h and the Activity (Rattus norvegicus [15]) was “Active”. The Tmax [16] was 2 h, the Activity (Rattus norvegicus [17]) was 90% and the AUC(0-t) [18] was 410 µg·h/mL. The remaining at 1 h [19] was 46.2%, the Activity (Rattus norvegicus [20]) was 86% and the Activity (Rattus norvegicus [21]) was 17%. The Papp [22] was 2.97 ×10⁻⁶ cm/s, the inhibition [23] was 44.5% and the Activity (Rattus norvegicus [24]) was “Dose-dependent effect”. For the same compound, the ED50 (Rattus norvegicus [24]) was 2.08 mg/kg, the “Drug uptake(free)” value (Brain) was 5 nM and the inhibition [25] was 11.2%. For the same compound, the IC50 [26] was 6.3 nM, the inhibition [27] was 0% and the AUC(0-t) [28] was 31.6 µg·h/mL. The Activity (Rattus norvegicus [29]) was 43% and the inhibition [30] was 33.8%.

— ChEMBL document CHEMBL3352660, “Design, synthesis and pharmacological evaluation of novel polycyclic heteroarene ethers as PDE10A inhibitors: part II” (Bioorg Med Chem Lett, 2014)
